For data set [1], the system named is standard normal pooled plasma. Nature of the data set: CloFAL assay, altered fibrinolysis studies in treated standard normal pooled plasma. Type of data set: biochemical, human. Particulars: TAFIa inhibition by PTCI, final plasma concentration 50 μg/mL.
Protocol: Frozen plasma aliquots were thawed in a 37° C. water bath for three minutes. […] Plasma samples (fresh or freeze-thawed) were maintained for up to 30 minutes in an ice-water bath until time of assay. […]
The kinetic absorbance data was exported to Microsoft Excel and absorbance measurements at each time point were averaged for the triplicate runs of each specimen. Using the averaged absorbance for the specimen, the maximum amplitude of rise in absorbance was determined (MA=maximum absorbance minus baseline absorbance, where baseline absorbance was obtained by averaging the third through eighth kinetic readings). […]
For data set [2], the system named is standard normal pooled plasma. Nature of the data set: CloFAL assay, heparin studies and heparinase reversal. Type of data set: biochemical, human. The text has this:
The assay described here was modified from those of He et al. (1999) and Smith et al. (2003). As compared to that by Smith et al., which evaluates only fibrinolysis, the CloFAL assay permits assessment of coagulability as well. Furthermore, when compared to the global assay of He et al., the CloFAL assay permits testing with a single reagent to evaluate both coagulation and fibrinolysis, rather than requiring (as does that of He et al.) the preparation of two distinct reagents for separate evaluation of the plasma sample. […] Frozen plasma aliquots were thawed in a 37° C. water bath for three minutes. […]
For each patient sample to be analyzed, 75 μL of freeze-thawed or fresh plasma was dispensed into each of three wells in a round-bottom, 96-well, Nunc assay plate (Fisher Scientific, Santa Clara, Calif.), and then pre-warmed at 37° C. for three minutes. […] The plate was then immediately placed in an eight-channel microplate spectrophotometer (PowerWave HT, Bio-Tek Instruments, Winooski, Vt.) for dual kinetic absorbance measurements at 405 nm and 630 nm at 45-second intervals for 3 hours, following an initial five-second mixing step prior to the first reading. The spectrophotometer interfaced with a computer such that all its operations, including continuous analysis of delta-absorbance (405 nm minus 630 nm) data using KC4™ PC software, may be automated. […]

The results in this text go back to patent US20080268483A1, “Methods for a Global Assay of Coagulation and Fibrinolysis” (The Regents of the University of Colorado, priority 2004, published 2008).

For “PTCI: potato tuber carboxypeptidase inhibitor (Sigma-Aldrich), blocks TAFI activation to enhance fibrinolysis (QQHADPICNKPCKTHDDCSGAWFCQACWNSARTCGPYVG; UniProt P01075 1-39, looked up)”, in data set [1], the “FI (fibrinolytic index)” value was “increased” and the “duration of the first phase of decline in turbidity in the CloFAL curve” value was “prolonged”.

Regarding heparin, the “rise in absorbance of the CloFAL curve” value in data set [2] (heparin at 2 U/mL in standard normal pooled plasma) is “greatly prevented”; in data set [2] (heparin concentrations of as little as 0.1 U/mL), “prolongation and attenuation”.
